Test results from patent US10131639B2, “Formulations of 2-(tert-butylamino)-4-((1R,3R,4R)-3-hydroxy-4methylcyclohexylamino)-pyrimidine-5-carboxamide” (Signal Pharmaceuticals, LLC, priority 2014, dated 2018).
Like-named read-outs stand apart in the source and are kept apart here.

Columns and labels:
[1] = Phase 1 study Part 2: single-dose plasma pharmacokinetics, relative bioavailability (tablet vs AIC) and food effect in healthy subjects; format: in vivo, human; details: for AUC(0-t) / Tmax / AUC(0-inf) / Cmax / Vd/F / half-life: human, plasma; for Vd/F: read-out: Vz/F (apparent total volume of distribution)
Protocol: Part 2 was an open label, randomized, crossover study with three periods. The study consisted of a screening phase (Days −21 to −2), baseline (Day −1), three treatment/assessment periods, and a follow up phone call.
Twelve eligible subjects reported to the study center on Day −1 of Period 1 for confinement and baseline assessments.
All subjects fasted overnight for at least 10 hours prior to dosing. For Treatment F, subjects received a standard high-fat breakfast 30 minutes before dosing. Dosing occurred 30 minutes (±5 minutes) after serving the meal.
Treatments D and E were administered in the morning following an overnight fast of at least 10 hours. Subjects who received Treatments D and E (fasted) continued to fast for at least 4 hours after dosing. For Treatment F, subjects received a standard high fat (approximately 50% of the total caloric content of the meal), high calorie (approximately 800 to 1000 calories) breakfast 30 minutes before dosing. The meal derived approximately 150, 250, and 500 to 600 calories from protein, carbohydrates, and fat, respectively. Subjects consumed the entire meal within 30 minutes of serving. Dosing occurred 30 minutes (±5 minutes) after serving the meal.
Actual sampling times were used in the calculation of PK parameters.
AUCt: AUC from time zero to the last quantifiable concentration.
AUC∞: AUC from time zero extrapolated to infinity.
Cmax: Maximum observed plasma concentration.
CL/F: Apparent total plasma clearance when dosed orally.
Vz/F: Apparent total volume of distribution when dosed orally.
t1/2: Terminal phase elimination half-life.
Geometric least squares (LS) means, ratio (fed/fasted) and 90% confidence intervals (CIs) of the ratio of geometric LS means were from an analysis of variance (ANOVA) model with treatment, period, and sequence as fixed effects, and subject nested within sequence as a random effect on the natural log-transformed pharmacokinetics.
The median, median difference (fed-fasted), and 90% confidence interval of the median difference were from the Hodges-Lehmann estimate.

[2] = Phase 1 study: safety and tolerability in healthy subjects; format: in vivo, human
Text: Safety will be monitored throughout the study. Safety evaluations will include adverse event (AE) reporting, PEs, vital signs, 12-lead ECGs, clinical laboratory safety tests (including liver function tests (LFTs), total cholesterol, triglycerides, high-density lipoprotein (HDL), and low-density lipoprotein (LDL)) in addition to standard clinical chemistry, hematology, and urinalysis tests), review of concomitant medications/procedures, evaluation of wound healing, and pregnancy tests for female subjects.
All AEs will be monitored and recorded throughout the study from the time the informed consent form (ICF) is signed until study completion, and when made known to the Investigator within 28 days after the last dose of Compound 1 (and those serious adverse events (SAEs) made known to the Investigator at any time thereafter that are suspected of being related to IP). All concomitant medications and procedures will be reviewed and recorded from the time the subject signs the ICF until study completion. A follow-up visit (Part 1) or a follow-up phone call (Part 2) will be scheduled for all subjects. If a subject is discontinued from the study for any reason, an ET visit will be performed.
Part 1: To evaluate the safety of single and multiple oral doses of Compound 1; and Part 2: To evaluate the safety and tolerability of the formulated Compound 1 tablets when administered with food.

[3] = Earlier human experience with Compound 1 (doses up to 480 mg QD×14 days); format: in vivo; details: healthy subjects
in vivo [4] = details: rat
Text: Based upon available human PK and preclinical pharmacology data, the doses were anticipated to provide a range of PD effects including both minimum and maximum JNK inhibition.

[5] = Hygroscopicity by dynamic vapor sorption (DVS); format: physicochemical
Text: DVS: A portion of the sample was loaded into a quartz sample holder and tested using DVS-Advantage system in two continuous adsorption/desorption cycles. The settings are described as follows:
Adsorption/desorption cycle 1: 50 to 95 to 0% RH;
Adsorption/desorption cycle 2: 0 to 95 to 0% RH;

in vivo [6] = details: dog
[7] = Solid state chemical stability under stress conditions (HPLC with UV detection); details: for Chemical stability (open vial, 2 weeks): HPLC/UV
Protocol: Six vials were prepared for each salt. Two samples were stored in the refrigerator. The other four samples in open vials were stored under 4 stress conditions, respectively. […] One set of samples stored in the refrigerator were used to prepare the stock and standard solutions.

[8] = 200 mg tablet vs 2×100 mg capsules, single oral dose, fasted
[9] = Comparison E/D: 200 mg tablet fasted vs 2×100 mg AIC fasted
[10] = Comparison F/E: 200 mg tablet fed vs fasted
[11] = single oral dose of 200 mg tablet

AUCt and AUC∞ of tablet compared to the capsules [1, 8]: equivalent
Cmax of tablet lower relative to the capsule formulation [1, 8]: ~17%
AUCt, Ratio (%) of Geometric Means [1, 9]: 92.6%
AUC∞, Ratio (%) of Geometric Means [1, 9]: 92.9%
Cmax, Ratio (%) of Geometric Means [1, 9]: 82.9%
AUCt, Ratio (%) of Geometric Means [1, 10]: 100.6%
AUC∞, Ratio (%) of Geometric Means [1, 10]: 100.8%
Cmax, Ratio (%) of Geometric Means [1, 10]: 106.4%
AUCτ (time 0 to the last quantifiable concentration) ([1]; Treatment F: 1×200 mg formulated tablet, single oral dose, fed (high-fat breakfast), geometric mean (geometric CV%), N=12): 12000 (27.4) ng · h/mL
AUC(0-t) ([1]; 200 mg, Treatment D: 2×100 mg as AIC, single oral dose, fasted, healthy subjects, geometric mean (geometric CV%), N=12, read-out: AUCτ (time 0 to the last quantifiable concentration)): 12900 ng·h/mL
Tmax ([1]; oral, 200 mg, Comparison E/D: 200 mg tablet fasted vs 2×100 mg AIC fasted, read-out: tmax, Median Difference): 0.01 h
Tmax ([1]; oral, 200 mg, Comparison F/E: 200 mg tablet fed vs fasted, read-out: tmax, Median Difference): 0.87 h
Tmax ([1]; oral, postdose, for all doses (Part 1 and Part 2), read-out: median Tmax): 1.95 to 3 h
AUC(0-t) ([1]; po, 200 mg, Treatment D: 2×100 mg as AIC, single oral dose, fasted, N=12, read-out: AUCt, Geometric Mean (ANOVA LS mean)): 12900 ng·h/mL
AUC(0-inf) ([1]; po, 200 mg, Treatment D: 2×100 mg as AIC, single oral dose, fasted, N=12, read-out: AUC∞, Geometric Mean (ANOVA LS mean)): 13100 ng·h/mL
Cmax ([1]; po, 200 mg, Treatment D: 2×100 mg as AIC, single oral dose, fasted, N=12, read-out: Cmax, Geometric Mean (ANOVA LS mean)): 2080 ng/mL
Tmax ([1]; po, 200 mg, Treatment D: 2×100 mg as AIC, single oral dose, fasted, N=12, read-out: tmax, Median (Hodges-Lehmann estimate)): 2 h
AUC(0-inf) ([1]; po, 200 mg, Treatment D: 2×100 mg as AIC, single oral dose, fasted, geometric mean (geometric CV%), N=12, read-out: AUC∞): 13100 ng·h/mL
Cmax ([1]; po, 200 mg, Treatment D: 2×100 mg as AIC, single oral dose, fasted, geometric mean (geometric CV%), N=12, read-out: Cmax): 2080 ng/mL
Vd/F ([1]; po, 200 mg, Treatment D: 2×100 mg as AIC, single oral dose, fasted, geometric mean (geometric CV%), N=12): 447 L
half-life ([1]; po, 200 mg, Treatment D: 2×100 mg as AIC, single oral dose, fasted, geometric mean (geometric CV%), N=12, read-out: t1/2 (terminal elimination half-life) (converted)): 20.3 h
Tmax ([1]; po, 200 mg, Treatment D: 2×100 mg as AIC, single oral dose, fasted, median (minimum, maximum), N=12, read-out: Tmax): 2 h
AUC(0-t) ([1]; po, 200 mg, Treatment E: 1×200 mg formulated tablet, single oral dose, fasted, N=12, read-out: AUCt, Geometric Mean (ANOVA LS mean)): 11900 ng·h/mL
AUC(0-inf) ([1]; po, 200 mg, Treatment E: 1×200 mg formulated tablet, single oral dose, fasted, N=12, read-out: AUC∞, Geometric Mean (ANOVA LS mean)): 12200 ng·h/mL
Cmax ([1]; po, 200 mg, Treatment E: 1×200 mg formulated tablet, single oral dose, fasted, N=12, read-out: Cmax, Geometric Mean (ANOVA LS mean)): 1730 ng/mL
Tmax ([1]; po, 200 mg, Treatment E: 1×200 mg formulated tablet, single oral dose, fasted, N=12, read-out: tmax, Median (Hodges-Lehmann estimate)): 2 h
AUC(0-t) ([1]; po, 200 mg, Treatment E: 1×200 mg formulated tablet, single oral dose, fasted, geometric mean (geometric CV%), N=12, read-out: AUCτ (time 0 to the last quantifiable concentration)): 11900 ng·h/mL
AUC(0-inf) ([1]; po, 200 mg, Treatment E: 1×200 mg formulated tablet, single oral dose, fasted, geometric mean (geometric CV%), N=12, read-out: AUC∞): 12200 ng·h/mL
Cmax ([1]; po, 200 mg, Treatment E: 1×200 mg formulated tablet, single oral dose, fasted, geometric mean (geometric CV%), N=12, read-out: Cmax): 1730 ng/mL
Vd/F ([1]; po, 200 mg, Treatment E: 1×200 mg formulated tablet, single oral dose, fasted, geometric mean (geometric CV%), N=12): 477 L
half-life ([1]; po, 200 mg, Treatment E: 1×200 mg formulated tablet, single oral dose, fasted, geometric mean (geometric CV%), N=12, read-out: t1/2 (terminal elimination half-life) (converted)): 20.1 h
Tmax ([1]; po, 200 mg, Treatment E: 1×200 mg formulated tablet, single oral dose, fasted, median (minimum, maximum), N=12, read-out: Tmax): 2 h
AUC(0-t) ([1]; po, 200 mg, Treatment F: 1×200 mg formulated tablet, single oral dose, fed, N=12, read-out: AUCt, Geometric Mean (ANOVA LS mean)): 12000 ng·h/mL
AUC(0-inf) ([1]; po, 200 mg, Treatment F: 1×200 mg formulated tablet, single oral dose, fed, N=12, read-out: AUC∞, Geometric Mean (ANOVA LS mean)): 12300 ng·h/mL
Cmax ([1]; po, 200 mg, Treatment F: 1×200 mg formulated tablet, single oral dose, fed, N=12, read-out: Cmax, Geometric Mean (ANOVA LS mean)): 1840 ng/mL
Tmax ([1]; po, 200 mg, Treatment F: 1×200 mg formulated tablet, single oral dose, fed, N=12, read-out: tmax, Median (Hodges-Lehmann estimate)): 3 h
AUC(0-inf) ([1]; po, 200 mg, Treatment F: 1×200 mg formulated tablet, single oral dose, fed, geometric mean (geometric CV%), N=12, read-out: AUC∞): 12300 ng·h/mL
Cmax ([1]; po, 200 mg, Treatment F: 1×200 mg formulated tablet, single oral dose, fed, geometric mean (geometric CV%), N=12, read-out: Cmax): 1840 ng/mL
Vd/F ([1]; po, 200 mg, Treatment F: 1×200 mg formulated tablet, single oral dose, fed, geometric mean (geometric CV%), N=12): 510 L
half-life ([1]; po, 200 mg, Treatment F: 1×200 mg formulated tablet, single oral dose, fed, geometric mean (geometric CV%), N=12, read-out: t1/2 (terminal elimination half-life) (converted)): 21.7 h
Tmax ([1]; po, 200 mg, Treatment F: 1×200 mg formulated tablet, single oral dose, fed, median (minimum, maximum), N=12, read-out: Tmax): 3 h
half-life ([1]; po, 200 mg, following a single oral dose of 200 mg, read-out: terminal elimination t1/2 (converted)): ~20 h
correlation of plasma concentrations with whole blood concentration ([1]; single 200 mg dose, Treatment D (FIG. 106)): highly correlated
effect of food on the PK of the tablet formulation ([1]; single oral 200 mg tablet, healthy subjects): no effect
AUCt and AUC∞ under fed compared to fasted conditions [1, 11]: equivalent
Cmax higher in the fed state compared to the fasted state [1, 11]: ~6%
AUC (in vivo [4]): 23400 ng·h/mL
Hygroscopicity (80% RH, 25° C., cycle 1 sorption) ([5]; DVS water uptake, L-tartrate: hydrate, difference between 20% RH and 80% RH): 0.17%
hygroscopicity (sorption/desorption, in words) ([5]; DVS, 25° C.): not hygroscopic
AUC at 28 days (in vivo [6]): 81200 ng·h/mL
Chemical stability (open vial, 2 weeks) ([7]; 80° C./75% RH): no change
Chemical stability (open vial, 2 weeks) ([7]; 80° C.): no change
% Remaining at 80° C. ([7]; solid state, open vial, 80° C., 2 weeks, HPLC with UV detection): 101.8%
% Remaining at 80° C./75% RH ([7]; solid state, open vial, 80° C./75% RH, 2 weeks, HPLC with UV detection): 100.8%
SMILES: C[C@@H]1CC[C@@H](Nc2nc(NC(C)(C)C)ncc2C(N)=O)C[C@H]1O [Compound 1, 2-(tert-butylamino)-4-((1R,3R,4R)-3-hydroxy-4-methylcyclohexylamino)-pyrimidine-5-carboxamide]
subjects reporting TEAEs ([2]; 11 of 28 subjects, 17 TEAEs, Parts 1 and 2 overall): 39.3%
clinical laboratory evaluations, vital sign measurements, ECGs ([2]; Parts 1 and 2): No clinically significant changes or findings
subjects with an SAE or severe TEAE ([2]; Parts 1 and 2 overall, 28 subjects): No subjects
safety and tolerability ([2]; multiple doses 60, 160 and 400 mg AIC QD for 6 days): safe and well tolerated
diarrhea suspected of being related to Compound 1 ([2]; of 28 subjects): 2 subjects
nausea suspected of being related to Compound 1 ([2]; of 28 subjects): 4 subjects
safety and tolerability ([2]; single doses of 200 mg as formulated tablets (fed and fasted) and AIC (fasted)): safe and well tolerated
tolerability [3]: well tolerated
